Paper PMC5374420, “In Search of Small Molecule Inhibitors Targeting the Flexible CK2 Subunit Interface” (Pharmaceuticals, 2017)
Where a SMILES comes first, the peptide text is derived from it. Bridges are numbered along the chain shown (N, C = ends).

Key:
[1] = test system: HeLa; assay: Cell death of cancerous cell line, PrestoBlue assay; format: cell-based; conditions: 6 h, increasing concentrations (Figure S1)
Experimental: (§1) Alternatively, cell viability was measured using the PrestoBlue® assay (Invitrogen, Carlsbad, CA, USA). The microtiter plates containing the treated cells were incubated for 1 h with 10 µL PrestoBlue. The fluorescence was recorded at 580 nm using a FluoStar Optima plate reader (BMG LabTech, Ortenberg, Germany).
(§2) Supplementary Materials: In Search of Small
(§3) Molecule Inhibitors Targeting the Flexible CK2
(§4) Benoit Bestgen, Zakia Belaid-Choucair, Thierry Lomberget, Marc Le Borgne, Odile Filhol […]
(§5) Figure S1. Cellular effects of TAT-Pc 13. (A) MDA MB-231 cells (⦁-⦁) or HeLa cells (○-○) were incubated for 6 h with increasing concentrations of TAT-Pc 13 and cell death was measured using the PrestoBlue assay as described in Material and Methods; (B) 786-O cells were treated for 12 h with increasing concentrations of CX-4945, lysed and analyzed by Western blot; (C) 786-O cells were treated with 20 µM TAT-Pc 13 or 5 µM CX-4945 and immunostained for p21 expression.
(§6) Figure 2. Inhibition of TAT-Pc-induced cell death. MCF-10A cells were pre-treated in the absence (CTRL) or presence of 20 µM z-VAD or 30 µM Necrostatin-1 or 20 µM z-VAD + 30 µM Necrostatin-1 for 5 h and then incubated for 4 h with 25 µM random TAT-Pc 13 or TAT-Pc 13 and cell viability was evaluated as in Figure 8A. […]

[2] = test system: MDA MB-231; assay: as above; format: cell-based; conditions: 6 h, increasing concentrations (Figure S1)
Experimental: as §1, §2, §3, §4, §5, §6

[3] = target: T1, CK2α (Homo sapiens, UniProt P68400); assay: Thermal shift assay in cell lysates; format: binding
T1 construct: endogenous in cells; host or cells: MCF-10A (CK2β-silenced by pLKO1 lentiviral shRNA; WT as comparison)
T1 sequence (P68400 whole entry): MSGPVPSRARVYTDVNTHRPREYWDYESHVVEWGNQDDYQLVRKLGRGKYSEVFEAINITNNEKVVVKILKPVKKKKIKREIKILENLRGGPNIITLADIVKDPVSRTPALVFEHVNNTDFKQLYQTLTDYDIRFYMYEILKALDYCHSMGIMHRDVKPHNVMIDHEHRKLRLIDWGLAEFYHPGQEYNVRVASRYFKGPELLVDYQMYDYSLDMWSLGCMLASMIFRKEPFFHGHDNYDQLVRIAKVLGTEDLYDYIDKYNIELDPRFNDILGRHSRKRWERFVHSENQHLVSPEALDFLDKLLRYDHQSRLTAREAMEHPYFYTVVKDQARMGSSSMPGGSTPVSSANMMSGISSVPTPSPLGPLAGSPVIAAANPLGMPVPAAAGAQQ
Experimental: Thermal shift assay (TSA) is based on the biophysical principle of ligand-induced thermal stabilization of target proteins. This assay can be used to detect protein–ligand interactions in complex cell extracts. Therefore, we have generated thermal melting curves from cell extracts, in which the extent of CK2 unfolding was measured. The assays were performed on WT or CK2β-depleted MCF-10A cell extracts incubated with 50 µM of TAT or TAT-Pc 13 and exposed to increasing temperatures.
Figure 5 Thermal shift assay in cell lysates. CK2β-depleted MCF-10A cell lysates were treated with 50 µM TAT or TAT-Pc 13 (A), or with PBS (Phosphate-buffered saline) or CK2β (B) for 30 min at room temperature. The respective lysates were divided into 20 µL aliquots and heated individually at different temperatures for 3 min. After centrifugation, the supernatants were assayed for CK2 activity with the CK2β-independent peptide substrate. Representative data shown from two independent experiments in duplicate.
CK2β-depleted MCF-10A cell lysates prepared in 50 mM Tris-HCl pH 7.5, 150 mM NaCl, and 2% glycerol supplemented with Complete Protease Inhibitor Cocktail (Sigma, #P8340) were divided into four aliquots with two being treated with 50 µM TAT or […] and the other two aliquots with CK2β or PBS (control). […]

CC[C@H](C)[C@@H]1NC(=O)[C@H](CCCCN)NC(=O)[C@H](Cc2ccccc2)NC(=O)CNC(=O)[C@H](Cc2ccc(O)cc2)NC(=O)[C@H](CC(C)C)NC(=O)[C@H](CCCNC(=N)N)NC(=O)CNC(=O)CNC(=O)[C@@H](NC(=O)[C@H](CCC(N)=O)NC(=O)[C@@H]2CCCN2C(=O)[C@@H]2CCCN2C(=O)[C@H](CCCNC(=N)N)NC(=O)[C@H](CCCNC(=N)N)NC(=O)[C@H](CCCNC(=N)N)NC(=O)[C@H](CCC(N)=O)NC(=O)[C@H](CCCNC(=N)N)NC(=O)[C@H](CCCNC(=N)N)NC(=O)[C@H](CCCCN)NC(=O)[C@H](CCCCN)NC(=O)[C@H](CCCNC(=N)N)NC(=O)CN)CCCCNC(=O)CNC(=O)CNC(=O)[C@H](Cc2c[nH]cn2)NC1=O [TAT-Pc 13] (H-GRKKRRQRRRPPQKGGRLYGFKIHGG; lactam 14-C; N-terminus assumed)
induction of cell death [1]: induce cell death | induction of cell death [2]: induce cell death | shift in the melting curves ([3]; CK2β-depleted MCF-10A cell extracts, 50 µM peptide, 30 min at room temperature, 3 min heating, read-out CK2 activity): 4 °C | thermal shift in WT cell extracts ([3]; extracts from WT MCF-10A cells, not shown): no thermal shift
